Source: patent publication US11890318B2, “Methods and compositions for modulating appetite and intake of sodium” (California Institute of Technology, priority 2019, dated 2024)
“Also recorded” adds a separate entry of the source.

Tests used:
pre-LC^PDYN neurons [1] = test: Fibre photometry recording of GCaMP6s signals from pre-LC^PDYN neurons during ingestion or IG infusion; type: in vivo, mice
Experimental: For photometry recording, animals were given either 5- or 10-minutes access to stimuli. To examine sodium specific responses of pre-LC^PDYN neurons (FIGS. 3D, 3E), animals were presented with three solutions during the session. First, animals were given 5 min access to 0.5 M KCl (FIG. 3D) or 0.5 M NaCl+0.1 mM amiloride (FIG. 3E). Then animals had 5 min access to water. Finally, animals were given 5 min access to 0.5 M NaCl. The interval between trials was 5 min. In FIG. 4B, 0.5 M NaCl, deionized water, or glucose solution (5 M) was infused via an intragastric catheter. Solutions were delivered at 0.1 ml/min for 5 min (water and sodium) or 10 min (food) using an infusion syringe pump (NE-300, New Era Pump Systems Inc). 10 min after gastric infusion, animals were given access to nutrients and their consumption was quantified for 10 min (for water and 0.5 M NaCl), or 30 min (for normal chow). Either air infusion (for water), or water infusion (for sodium and food) was used as a control stimulus. In FIG. 4D, either 0.15 M NaCl, water, or air was infused at a rate of 0.1 ml/min while recording the neural activity by photometry. For control, oral ingestion (FIG. 4C), the same set of animals were given access to 0.15 M NaCl. For all photometry assays, animals were acclimatized for 10-15 min in the chamber before stimuli were presented. Bulk fluorescence signals were collected using fibre photometry as previously described. Briefly, data were extracted and subjected to a low-pass filter at 1.8 Hz. A linear function was used to scale up the 405-nm channel signal to the 490-nm channel signal to obtain the fitted 405-nm signal. The resultant ΔF/F was calculated as (raw 490 nm signal−fitted 405 nm signal)/(fitted 405 nm signal). ΔF/F was then time-binned by a factor of 2.5 times the sampling frequency and down-sampled to 10 Hz. For all bouts, the mean fluorescence for 5 min before the first lick was calculated and subtracted from the entire session. The licks from the lickometer were simultaneously recorded. The area under the curve (AUC) was quantified by integrating the baseline-subtracted fluorescence signals for 30 sec after the start of the bout. For FIG. 10D, the data were quantified as ΔF/F change between 1 sec prior to, and at the first lick (0 sec). For IG infusion experiments (FIG. 4E), AUC was quantified during the 5-min of infusion.

[2] = Intragastric infusion and subsequent ingestive behavior; type: in vivo; conditions: sodium-depleted mice
Experimental: In FIG. 4B, 0.5 M NaCl, deionized water, or glucose solution (5 M) was infused via an intragastric catheter. Solutions were delivered at 0.1 ml/min for 5 min (water and sodium) or 10 min (food) using an infusion syringe pump (NE-300, New Era Pump Systems Inc). 10 min after gastric infusion, animals were given access to nutrients and their consumption was quantified for 10 min (for water and 0.5 M NaCl), or 30 min (for normal chow). Either air infusion (for water), or water infusion (for sodium and food) was used as a control stimulus. In FIG. 4D, either 0.15 M NaCl, water, or air was infused at a rate of 0.1 ml/min while recording the neural activity by photometry. For control, oral ingestion (FIG. 4C), the same set of animals were given access to 0.15 M NaCl.

pre-LC^PDYN neurons [3] = test: Chemogenetic manipulation, sodium and water consumption; type: in vivo, mice; conditions: CNO 10 mg/kg intraperitoneal
Text: For ChR2 photostimulation. 473 nm laser pulses (20 ms, 20 Hz) were delivered via an optic cable (MFP-FC-ZF, Doric Lenses) using a pulse generator (Sapphire 9200 from Quantum composers or SYS-A310 from WPI). The laser intensity was maintained at 5-10 mW at the tip of the fiber. Unless otherwise noted, photostimulation was delivered for 1 s at 3 s intervals throughout the behavior session. For iC++ photoinhibition, 473 nm laser was continuously turned on throughout the session at 3 mW at the tip of the fiber. For chemogenetic manipulation (FIGS. 8E-H), CNO (Sigma, 10 mg/kg) or vehicle (water) was administered intraperitoneal 20 min before the sodium consumption experiment.
To induce sodium appetite, animals were injected with furosemide (Sigma) at a dose of 50 mg/kg body weight. Low sodium diet (TD. 90228, ENVIGO) was provided for 2 days after the injection of furosemide. For water-restriction experiments, animals were kept in their home cage without water, and were provided with 1 mL of water daily. For food restriction experiments, animals were deprived of food up to 24 hrs with normal water provided. All assays were performed in a custom gustometer (Dialog Instruments) or Biodaq monitoring system (Research Diets Inc). All sodium-depleted animals were trained in a gustometer before experiments. Animals which licked at least 150 licks during the 30-min session were used for further behavioral assays. After every sodium-depletion round, animals were recovered for at least 4 days with the normal diet.
(§1) For appetite specificity assay (FIG. 7C), three different solutions were presented to animals during the same session, and their preference was measured as a lick number. For each trial, 20 sec of photostimulation was delivered to the animal with an inter-trial-interval of 60 secs. Water, 0.5 M KCl, 0.5 M NaCl, or 0.5 M NaCl+30 μM amiloride was used for preference assay. For sodium consumption assay (FIGS. 1E, 1G, and 1H), animals were given ad libitum access to 0.5 M NaCl, water or an empty spout for either 7.5 or 30 min.

[4] = tested on: pre-LC^PDYN neurons expressing hM4Di; test: Slice electrophysiology, chemogenetic (hM4Di) inhibition by CNO; type: cell-based; conditions: AAV-DIO-hM4Di-mCherry; 10 μM CNO puffed 10 sec; 2 mice; FIG. 8E
Experimental: 250-μm coronal slices were obtained using a vibratome (VT-1000s, Leica) in ice-cold sucrose-aCSF (artificial cerebrospinal fluid) solution (Sucrose 213, KCl 2.5, NaH2PO4 1.2, NaHCO3 25, glucose 10, MgSO4 7, CaCl2 1, in mM at pH 7.3), and then incubated in HEPES-holding aCSF (NaCl 92, KCl 2.5, NaH2PO4 1.2, NaHCO3 30, HEPES 20, glucose 25, Na-ascorbate 5, thiourea 2, Na-pyruvate 3, MgSO4 2, CaCl2 2, in mM at pH 7.3-7.4). Slices were recovered at 34.5° C. for 45 min and then held at room temperature until use.
For patch-clamp recording, slices were placed in a recording chamber perfused with aCSF (NaCl 124, KCl 2.5, NaH2PO4 1.2, NaHCO3 25, glucose 10, MgSO4 1, CaCl2 2, in mM, at pH 7.3) on an upright microscope (Examiner.D1, Zeiss). Whole-cell recordings were achieved using glass pipettes (5-8 MΩ) filled with intracellular solution (for DREADD and iC++ experiments, K-gluconate 145, NaCl 2, KCl 4, HEPES 10, EGTA 0.2, Mg-ATP 4, Na-GTP 0.3; for GABAergic postsynaptic currents, CsCl 145, NaCl 2, HEPES 10, EGTA 0.2, QX-314 bromide 5, Mg-ATP 4, Na-GTP 0.3, in mM at pH 7.25; for glutamatergic postsynaptic currents, Cs(CH3)SO3 145, NaCl 2, HEPES 10, EGTA 0.2, QX-314 bromide 5, Mg-ATP 4, Na-GTP 0.3, in mM, at pH 7.25). Electrical signals were filtered at 3 k Hz with Axon MultiClamp 700B (Molecular Devices) and collected at 20 kHz with Axon Digidata 1550A (Molecular Devices). […]

[5] = tested on: Pre-LC^PDYN-stimulated animals; test: Preference assay (appetite specificity) under photostimulation of pre-LC^PDYN neurons; type: in vivo, mice; conditions: photostimulated animals; 0.5 M NaCl+30 μM amiloride; FIG. 7C
Experimental: as §1

dBNST→pre-LC neurons = test: Optical recording of calcium responses of dBNST→pre-LC neurons; type: in vivo, mice; conditions: sodium-depleted conditions; FIG. 5F
Experimental: For all photometry assays, animals were acclimatized for 10-15 min in the chamber before stimuli were presented. Bulk fluorescence signals were collected using fibre photometry as previously described. Briefly, data were extracted and subjected to a low-pass filter at 1.8 Hz. A linear function was used to scale up the 405-nm channel signal to the 490-nm channel signal to obtain the fitted 405-nm signal. The resultant ΔF/F was calculated as (raw 490 nm signal−fitted 405 nm signal)/(fitted 405 nm signal). ΔF/F was then time-binned by a factor of 2.5 times the sampling frequency and down-sampled to 10 Hz. For all bouts, the mean fluorescence for 5 min before the first lick was calculated and subtracted from the entire session. The licks from the lickometer were simultaneously recorded. The area under the curve (AUC) was quantified by integrating the baseline-subtracted fluorescence signals for 30 sec after the start of the bout. For FIG. 10D, the data were quantified as ΔF/F change between 1 sec prior to, and at the first lick (0 sec). For IG infusion experiments (FIG. 4E), AUC was quantified during the 5-min of infusion.
To label the dBNST→pre-LC circuit, 100 nl of CAV-Cre was injected into the pre-LC followed by the injection of AAV5-DIO-mCherry or AAV1-flex-GCaMP6S into the dBNST. These animals were used for experiments at least two weeks after the injection.

For `[Cl-].[Na+]` [NaCl], the “pre-LC^PDYN neuron activity, low concentration of NaCl” value (pre-LC^PDYN neurons [1]; 0.06 M NaCl, FIG. 10B) was “exhibited inhibitory effects”, the “pre-LC^PDYN neuron activity after brief NaCl intake” value (pre-LC^PDYN neurons [1]; NaCl intake for 1 sec, FIG. 3F) was “robust suppression for several minutes; also recorded: induced persistent suppression” and the “neural activity of pre-LC^PDYN neurons, IG infusion of NaCl” value (pre-LC^PDYN neurons [1]; intragastric infusion, 0.15 M NaCl, 0.1 ml/min, FIGS. 4D and 4E) was “no inhibitory effect; also recorded: not affected”. For the same compound, the “neural activity of pre-LC^PDYN neurons, oral NaCl consumption” value (pre-LC^PDYN neurons [1]; oral, 0.15 M NaCl, FIGS. 4C and 4E) was “drastically reduced”, the “subsequent sodium ingestion after gastric preloading of NaCl” value ([2]; IG 0.5 M NaCl, 0.1 ml/min for 5 min, FIG. 4B left) was “did not affect” and the “appetite reduction after a long period of IG infusion” value ([2]; IG NaCl, after 2 hrs) was 41.3±6.0%. For the same compound, the “sodium appetite after oral NaCl contact” value ([2]; oral, FIG. 4B left) was “quickly quenched the appetite”.

With `C[N+]1([O-])CCN(C2=Nc3cc(Cl)ccc3Nc3ccccc32)CC1` [CNO, clozapine N-oxide] the “thirst or sodium appetite in control animals” value (pre-LC^PDYN neurons [3]; AAV-DIO-mCherry injected animals, FIG. 8H) was “did not affect thirst or sodium appetite”, the “thirst under chemogenetic inhibition” value (pre-LC^PDYN neurons [3]; hM4Di, FIG. 8G) was “did not affect thirst” and the “sodium intake under chemogenetic inhibition” value (pre-LC^PDYN neurons [3]; hM4Di, sodium-depleted animals, FIG. 8G) was “reduced sodium intake”. The “pre-LC^PDYN neurons inhibited by CNO” value [4] was 13 out of 14.

For `N=C(N)NC(=O)c1nc(Cl)c(N)nc1N` [amiloride, reference compound], the “NaCl-induced suppression of pre-LC^PDYN neurons with amiloride” value (pre-LC^PDYN neurons [1]; sodium-depleted animals, 0.5 M NaCl+0.1 mM amiloride, FIG. 3E) was “fully abolished; also recorded: eliminated inhibition”, the “NaCl consumption in the presence of amiloride” value [5] was “reduced” and the “responses of dBNST→pre-LC neurons upon NaCl intake with amiloride” value (dBNST→pre-LC neurons) was “strongly inhibited”.

For `[Cl-].[K+]` [KCl], the “pre-LC^PDYN neuron activity upon ingestion of KCl” value (pre-LC^PDYN neurons [1]; sodium-depleted animals, 0.5 M KCl, FIG. 3D) was “no suppression was observed; also recorded: did not affect”.
